Source: article PMC8708492, “Homing Peptide-Based Targeting of Tenascin-C and Fibronectin in Endometriosis” (Nanomaterials, 2021)

Experiments:
HESC cells = assay: Binding of peptide-displaying T7 phages to cultured cells (plaque assay); set-up: species or system human; details: peptide displayed on T7 phage, HESC cells in suspension, 4 °C, 1 h, washed, N = 3
Protocol: (§1) Peptide-displaying T7 bacteriophages were prepared by cloning nucleotide sequences coding for different peptides into phage genomic DNA to be expressed on the phage surface as C-terminal fusions to capsid protein. The complementary oligonucleotides were annealed, and the cloning was performed according to the manufacturer’s protocol using the T7Select® 415-1 Cloning Kit (Millipore, 70015-3, Merck KGaA, Darmstadt, Germany). Peptide-displaying phage clones were thereafter amplified in complementing host bacterial cells BLT5403 and purified with polyethylene glycol according to an established protocol.
(§2) Prior to phage addition, 12Z and HESC cells were detached, washed with PBS, and resuspended in 0.5% BSA containing DMEM. Phages expressing a single peptide of interest (5 × 10^7 PFU/mL) were added to 5 × 10^7 cells, wherein insertless phage was used as a negative control. Incubation with phage clones was carried out on a slowly rocking platform at 4 °C for 1 h. Cells were washed four times with 0.5% BSA containing DMEM to eliminate unbound phages. Finally, the cells together with bound phages were resuspended in 1% NP40 containing LB solution, and plaque assay was performed as described earlier. Briefly, the amount of phage in cell lysates was determined by titering using Escherichia coli strain BLT5615 in LB medium containing 2 mM IPTG.
(§3) Figure 1 Binding of peptide-phages to cultured 12Z and HESC cells. Cells were incubated with the different peptide-displaying phages at 4 °C for 1 h, washed, and phage binding quantified by plaque assay. The phage binding is represented as a fold over insertless phage. N = 3, error bars = ±SEM. *** p < 0.001 (compared with insertless phage).

12Z cells = assay: as above; set-up: species or system human; details: peptide displayed on T7 phage, 12Z cells in suspension, 4 °C, 1 h, washed, N = 3
Protocol: as §1, §2, §3

Substance	phage binding, fold over insertless phage (HESC cells)	phage binding, fold over insertless phage (12Z cells)
AGRGRLVR (displayed on T7 phage) [PL3]	4–6 fold	4–6 fold
C * RGDKGPDC * (disulfide) [iRGD, disulfide-cyclised peptide targeting angiogenic αv integrins and NRP-1]	9 fold	3 fold
PPRRGLIKLKTS [PL1]	13–16 fold	13–16 fold
RPARPAR	~ 2 fold	low/background binding
RTRLHTR [EM2, receptor unknown]	~ 2 fold	low/background binding
VRRADNRPG [EM1, receptor CNGB3]	–	low/background binding
